Data reported in ChEMBL document CHEMBL1201862, “PubChem BioAssay data set” (2004).
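1) Cells in 96-well plates. 2) Compound, 48 h, 5 concentrations. 3) Linear interpolation between surrounding doses. 4) Unreached endpoint = highest concentration. Here, GI50 denotes the concentration required for 50% inhibition of growth.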 Activity calls are given as the source filed them. Cut-off read from the data, not from the text of the source: active = GI50 up to about 1.1 µM and inactive = higher.

Legend:
Test in all cases: NCI-60 cell line screen, 48 h
EKVX = test system: EKVX
SF-295 = test system: SF-295
SK-MEL-5 = test system: SK-MEL-5
PC-3 = test system: PC-3
OVCAR-4 = test system: OVCAR-4
A549 = test system: A549
KM12 = test system: KM12
HOP-62 = test system: HOP-62
HT-29 = test system: HT-29
COLO 205 = test system: COLO 205
SW-620 = test system: SW-620
K562 = test system: K562
M14 = test system: M14
OVCAR-5 = test system: OVCAR-5
DU-145 = test system: DU-145
UACC-257 = test system: UACC-257
OVCAR-8 = test system: OVCAR-8
SR = test system: SR
SK-MEL-2 = test system: SK-MEL-2
HCC 2998 = test system: HCC 2998

SMILES | GI50 (EKVX) | GI50 (SF-295) | GI50 (SK-MEL-5) | GI50 (PC-3) | GI50 (OVCAR-4) | GI50 (A549) | GI50 (KM12) | GI50 (HOP-62) | GI50 (HT-29) | GI50 (COLO 205) | GI50 (SW-620) | GI50 (K562) | GI50 (M14) | GI50 (OVCAR-5) | GI50 (DU-145) | GI50 (UACC-257) | GI50 (OVCAR-8) | GI50 (SR) | GI50 (SK-MEL-2) | GI50 (HCC 2998)
Nc1[nH]nc2ccccc12 | > 100 µM (inactive) | 77.8 µM (inactive) | > 100 µM (inactive) | > 100 µM (inactive) | > 100 µM (inactive) | > 100 µM (inactive) | > 100 µM (inactive) | > 100 µM (inactive) | > 100 µM (inactive) | > 100 µM (inactive) | > 100 µM (inactive) | 28.5 µM (inactive) | > 100 µM (inactive) | 60 µM (inactive) | > 100 µM (inactive) | > 100 µM (inactive) | > 100 µM (inactive) | 62.2 µM (inactive) | > 100 µM (inactive) | 
COC(=O)c1c(O)ccc2c1c1c(n2-c2ccc(OC)cc2)C(=O)c2ccccc2C1=O | 16.6 µM (inactive) | 18.7 µM (inactive) | 44.3 µM (inactive) | 20.7 µM (inactive) | 18.6 µM (inactive) | 10.1 µM (inactive) | 14.1 µM (inactive) | 20.2 µM (inactive) | 4.14 µM (inactive) | 1.94 µM (inactive) | 42.3 µM (inactive) | 55.2 µM (inactive) | 63.2 µM (inactive) | 30.7 µM (inactive) | 21.5 µM (inactive) | 64.9 µM (inactive) | 12.6 µM (inactive) |  | 26.1 µM (inactive) | 3.62 µM (inactive)
CCOC(=O)CC(=O)NC1CC2CCC1(C)C2(C)C (configuration not stated) | > 100 µM (inactive) | > 100 µM (inactive) | > 100 µM (inactive) | > 100 µM (inactive) | > 100 µM (inactive) | > 100 µM (inactive) | > 100 µM (inactive) | > 100 µM (inactive) | > 100 µM (inactive) | > 100 µM (inactive) | > 100 µM (inactive) | > 100 µM (inactive) | > 100 µM (inactive) | > 100 µM (inactive) | > 100 µM (inactive) | > 100 µM (inactive) | > 100 µM (inactive) | > 100 µM (inactive) |  | > 100 µM (inactive)
O=C(CC(=O)N1N=C(N2CCCCC2)CC1c1ccccc1)Nc1ccccc1 (configuration not stated) | > 100 µM (inactive) | > 100 µM (inactive) | > 100 µM (inactive) | > 100 µM (inactive) | > 100 µM (inactive) | > 100 µM (inactive) | > 100 µM (inactive) | > 100 µM (inactive) | > 100 µM (inactive) | > 100 µM (inactive) | > 100 µM (inactive) |  | > 100 µM (inactive) | > 100 µM (inactive) | > 100 µM (inactive) | > 100 µM (inactive) | > 100 µM (inactive) | > 100 µM (inactive) | > 100 µM (inactive) | > 100 µM (inactive)
COC(C)(C)C1=CCC(C)CC1 (configuration not stated) | > 100 µM (inactive) | > 100 µM (inactive) | > 100 µM (inactive) | > 100 µM (inactive) | > 100 µM (inactive) | > 100 µM (inactive) | > 100 µM (inactive) | > 100 µM (inactive) | > 100 µM (inactive) | > 100 µM (inactive) | > 100 µM (inactive) |  | > 100 µM (inactive) | > 100 µM (inactive) | > 100 µM (inactive) | > 100 µM (inactive) | > 100 µM (inactive) | 24 µM (inactive) |  | > 100 µM (inactive)
CC[C@@H]1CC[C@@H]2[C@H](CC[C@]3(C)[C@@H](O[N+](=O)[O-])CC[C@@H]23)[C@H]1C(C)=O | 16.8 µM (inactive) | 42.6 µM (inactive) | 19.7 µM (inactive) | 28.9 µM (inactive) | 39 µM (inactive) | 28.4 µM (inactive) | 17.3 µM (inactive) | 46.3 µM (inactive) | 13.1 µM (inactive) | 7.85 µM (inactive) | 40.4 µM (inactive) | 34.8 µM (inactive) | 30.8 µM (inactive) | 64.3 µM (inactive) | 45.7 µM (inactive) | 20 µM (inactive) | 37.2 µM (inactive) | 25.6 µM (inactive) |  | 28 µM (inactive)
O=C(CN1CCCC1=O)CS(=O)(=O)c1ccccc1 | > 100 µM (inactive) | > 100 µM (inactive) | > 100 µM (inactive) | > 100 µM (inactive) |  | > 100 µM (inactive) | > 100 µM (inactive) | > 100 µM (inactive) | > 100 µM (inactive) | > 100 µM (inactive) | > 100 µM (inactive) | > 100 µM (inactive) | > 100 µM (inactive) | > 100 µM (inactive) | > 100 µM (inactive) | > 100 µM (inactive) | > 100 µM (inactive) | > 100 µM (inactive) | > 100 µM (inactive) | > 100 µM (inactive)
CN(C)c1ccc(/C=N\NC(=O)Nc2cccc3ccccc23)cc1 | 0.215 µM (active) |  | 3.97 µM (inactive) | 6.62 µM (inactive) | 15.5 µM (inactive) | 9.57 µM (inactive) | 2.61 µM (inactive) | 8.67 µM (inactive) | 2.62 µM (inactive) | 4.99 µM (inactive) | 6.11 µM (inactive) |  | 5.37 µM (inactive) | 19.4 µM (inactive) | 6.71 µM (inactive) | 3.74 µM (inactive) | 14.9 µM (inactive) | 1.6 µM (inactive) | 2.9 µM (inactive) | 9.51 µM (inactive)
CC1=NC(=Cc2ccc([N+](=O)[O-])cc2)C(=O)N1n1c(-c2ccccc2)nc2ccccc2c1=O | 45.5 µM (inactive) | 52 µM (inactive) | 31.9 µM (inactive) | 39.7 µM (inactive) |  | 47.1 µM (inactive) | 35.6 µM (inactive) | 60.1 µM (inactive) | 37 µM (inactive) | 46.6 µM (inactive) | 36.7 µM (inactive) | 40.6 µM (inactive) | 46.7 µM (inactive) |  | 51.8 µM (inactive) | 42.9 µM (inactive) | 36.6 µM (inactive) | 35.2 µM (inactive) |  | 57.9 µM (inactive)
O=C1CN(c2ccc(Cl)cc2)C(=O)CN1NCNN1CC(=O)N(c2ccc(Cl)cc2)CC1=O | > 100 µM (inactive) | > 100 µM (inactive) | > 100 µM (inactive) | > 100 µM (inactive) | > 100 µM (inactive) | > 100 µM (inactive) | > 100 µM (inactive) | > 100 µM (inactive) | > 100 µM (inactive) | > 100 µM (inactive) | > 100 µM (inactive) |  | > 100 µM (inactive) | > 100 µM (inactive) | > 100 µM (inactive) | > 100 µM (inactive) | > 100 µM (inactive) | > 100 µM (inactive) |  | > 100 µM (inactive)
O=C1N[C@@H](COc2ccc(/C=N/c3ccc(CCc4ccc(/N=C/c5ccc(OC[C@@H]6COC(=O)N6)cc5)cc4)cc3)cc2)CO1 | > 100 µM (inactive) | > 100 µM (inactive) | > 100 µM (inactive) | > 100 µM (inactive) | > 100 µM (inactive) | > 100 µM (inactive) | > 100 µM (inactive) | > 100 µM (inactive) | > 100 µM (inactive) | > 100 µM (inactive) | > 100 µM (inactive) | > 100 µM (inactive) | > 100 µM (inactive) | > 100 µM (inactive) | > 100 µM (inactive) | > 100 µM (inactive) | > 100 µM (inactive) | > 100 µM (inactive) | > 100 µM (inactive) | 
Cc1ccc(/N=C/C=C(\Nc2ccc(C)cc2)c2ccc3ccccc3c2)cc1 |  | 0.497 µM (active) | 0.482 µM (active) | 1.02 µM (active) | 0.65 µM (active) | 2.66 µM (inactive) | 0.299 µM (active) | 0.912 µM (active) | 0.347 µM (active) | 0.571 µM (active) | 0.445 µM (active) | 0.414 µM (active) | 1.13 µM (inactive) | 1.45 µM (inactive) | 1.15 µM (inactive) | 0.501 µM (active) | > 100 µM (inactive) | 0.39 µM (active) | 0.938 µM (active) | 
CN/C(=N\N=C1/C(=O)Nc2ccccc21)SCC(=O)c1ccc(Br)cc1 | 22.3 µM (inactive) | 18.7 µM (inactive) | 22.9 µM (inactive) | 10.3 µM (inactive) | 21.5 µM (inactive) | 5.01 µM (inactive) | 7.53 µM (inactive) | 5.19 µM (inactive) | 8.59 µM (inactive) | 41.8 µM (inactive) | 2.42 µM (inactive) | 20.5 µM (inactive) | 11.7 µM (inactive) | 32 µM (inactive) | 6.82 µM (inactive) | 7.66 µM (inactive) | 8.53 µM (inactive) |  | 50 µM (inactive) | 5.26 µM (inactive)
CON(C)C(=O)C(C)NC(=O)OCc1ccccc1 (configuration not stated) | > 100 µM (inactive) | > 100 µM (inactive) | > 100 µM (inactive) | > 100 µM (inactive) |  | > 100 µM (inactive) | > 100 µM (inactive) | > 100 µM (inactive) | > 100 µM (inactive) |  | > 100 µM (inactive) | > 100 µM (inactive) | > 100 µM (inactive) | > 100 µM (inactive) | > 100 µM (inactive) | > 100 µM (inactive) | > 100 µM (inactive) | > 100 µM (inactive) |  | > 100 µM (inactive)
CC(=O)OCCOc1cc2c([nH]c3ccccc32)c(C)c2cccc1-2 | 1.86 µM (inactive) | 3.28 µM (inactive) | 2.77 µM (inactive) | 1.76 µM (inactive) | 1.77 µM (inactive) | 3.85 µM (inactive) | 2.34 µM (inactive) | 4.6 µM (inactive) | 3.78 µM (inactive) | 1.7 µM (inactive) | 2.7 µM (inactive) | 1.36 µM (inactive) | 2.48 µM (inactive) | 2.97 µM (inactive) | 4.16 µM (inactive) | 1.91 µM (inactive) | 2.59 µM (inactive) | 2.92 µM (inactive) | 2.21 µM (inactive) | 
